# Measured values from US6630338B2, “Removing deacetylase contaminant from cephalosporin C acylase using cationic surfactant” (Fujisawa Pharmaceutical Co., Ltd., priority 1996, dated 2003).
# What was measured:
# CC acylase = assay: Residual CC acylase activity after addition of surfactant (7-ACA produced from GL7-ACA); format: biochemical, Pseudomonas; conditions: for residual activity (CC acylase): room temperature 16 hours, relative to activity before addition as 100
# Description: (§1) Mutant CC acylase N-176 producing E. coli JM 109 (PCCN 176-2) FERM BP-3047 was cultured according to the method disclosed in Example 3 of Japanese Patent Unexamined Publication No. 584078 and the cells were harvested by centrifugation. The obtained cell pellets were disrupted with a homogenizer and soluble protein component was extracted with water, which was followed by centrifugation to remove debris, whereby a crude extract solution was obtained.
# (§2) Polyethyleneimine was added to the crude extract solution obtained in the above-mentioned (1) to allow precipitation of the nucleic acid, which was followed by centrifugation to recover supernatant. This supernatant was applied to DEAE column equilibrated with phosphate buffer (pH 7.0), washed with water and eluted with 0.2M-NaCl. […] The activities of CC acylase and deacetylase in each sample before and after the addition of the surfactant were measured and the changes thereof were examined. The enzyme activity was calculated by quantitatively determining 7-ACA and deacetyl 7-ACA produced from GL7-ACA as a substrate.
# deacetylase = assay: Residual contaminant deacetylase activity after addition of surfactant (deacetyl 7-ACA produced from GL7-ACA); format: biochemical; conditions: for residual activity (deacetylase): room temperature 16 hours, relative to activity before addition as 100
# Description: as §1, §2
# [1] = surfactant addition concentration 0.1%
# [2] = surfactant addition concentration 0.3%
# [3] = surfactant addition concentration 0.5%
# [4] = surfactant concentration 0.1-0.3%
Compound,residual activity (CC acylase) (CC acylase; [1]),residual activity (CC acylase) (CC acylase; [2]),residual activity (CC acylase) (CC acylase; [3]),residual activity (deacetylase) (deacetylase; [1]),residual activity (deacetylase) (deacetylase; [2]),residual activity (deacetylase) (deacetylase; [3]),CC acylase residual activity (CC acylase; [4]) [%],activity of contaminant deacetylase (deacetylase; [4]),removal of deacetylase (deacetylase; surfactant concentration 0.5%)
polyoxyethylene octylphenyl ether [Nonion HS-210],100,100,100,50,50,45,–,–,–
"CCCCCCCCCCCC[N+](C)(C)C.[Cl-] [Cation BB, dodecyltrimethyl ammonium chloride]",100,100,85,55,45,5,–,–,–
alkyl glycine [Nissan Anon LG],100,100,95,60,50,30,–,–,–
alkyl(palm)dimethylbenzyl ammonium chloride [Cation F2-50],95,92,70,5,1,0,≥ 90,not more than 5%,removed nearly completely
polyoxyethylenesorbitan monooleate [Nonion TO-221],100,100,100,50,50,45,–,–,–
alkyl(palm)trimethyl ammonium chloride [Cation FB],100,100,80,55,40,1,–,–,–
